Like-named read-outs stand apart in the source and are kept apart here.
Experiments:
Factor XIa = Factor XIa (Homo sapiens (Human), UniProt P03951); assay: Factor XIa inhibition assay (FLINT) utilizing a fluorophore-quencher pair peptide substrate; assay type: biochemical; settings: 30 min preincubation, kinetic reads over 30 min, read-out: FXIa Kin Inh IC50
Method in brief: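 FXIa ([…]) preincubated 30 min with compound (11-point 3-fold dilution, top 100 nM, 2% DMSO), then 15 μM quenched FXI Arg146-based peptide added; Tris pH 7.5, CaCl2, BSA, CHAPS. Fluorescence 485/520 nm read kinetically every 5 min over 30 min at RT; IC50 by 4-parameter fit.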

human plasma kallikrein = human plasma kallikrein (Homo sapiens (Human), UniProt P03952); assay: Kallikrein inhibition assay (FLINT) utilizing a quenched AMC peptide substrate; assay type: biochemical; settings: 30 min preincubation, read-out: Kallikrein Kin Inh IC50
Chain of human plasma kallikrein (P03952 391-638): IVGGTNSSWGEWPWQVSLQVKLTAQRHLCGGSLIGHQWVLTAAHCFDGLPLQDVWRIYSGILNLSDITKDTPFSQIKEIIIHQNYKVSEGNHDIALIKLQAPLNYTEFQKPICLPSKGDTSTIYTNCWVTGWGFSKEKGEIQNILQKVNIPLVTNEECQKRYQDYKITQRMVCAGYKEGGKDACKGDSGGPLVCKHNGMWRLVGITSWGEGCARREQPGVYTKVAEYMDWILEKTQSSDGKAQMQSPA
Chain of human plasma kallikrein (P03952 20-390 partner): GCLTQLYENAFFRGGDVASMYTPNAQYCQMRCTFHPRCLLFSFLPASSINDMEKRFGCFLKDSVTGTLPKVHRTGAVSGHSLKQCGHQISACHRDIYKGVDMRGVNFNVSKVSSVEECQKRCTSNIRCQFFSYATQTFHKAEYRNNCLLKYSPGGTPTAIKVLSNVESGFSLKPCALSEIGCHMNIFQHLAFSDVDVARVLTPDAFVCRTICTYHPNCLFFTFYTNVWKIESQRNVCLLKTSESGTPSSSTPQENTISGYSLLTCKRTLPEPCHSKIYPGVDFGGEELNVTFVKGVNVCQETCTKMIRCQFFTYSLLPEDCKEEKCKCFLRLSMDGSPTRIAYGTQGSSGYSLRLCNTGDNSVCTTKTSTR
Method in brief: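 Enzyme (2 nM final) pre-incubated 30 min at room temperature with compound (11-point, 3-fold, top 1 μM, 2% DMSO), then 50 μM Z-Gly-Pro-Arg-AMC added in Tris pH 7.5 buffer. Kinetic fluorescence 340/440 nm every 5 min over 30 min; IC50 from 4-parameter logistic fit.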

[1] = 5Fam-KLTRAETV-K5Tamra substrate 15 μM
[2] = kinetic reads over 30 min, Z-Gly-Pro-Arg-AMC substrate 50 μM
[3] = 5Fam-[…]-K5Tamra substrate 15 μM

Chain of Factor XIa (P03951 388-625): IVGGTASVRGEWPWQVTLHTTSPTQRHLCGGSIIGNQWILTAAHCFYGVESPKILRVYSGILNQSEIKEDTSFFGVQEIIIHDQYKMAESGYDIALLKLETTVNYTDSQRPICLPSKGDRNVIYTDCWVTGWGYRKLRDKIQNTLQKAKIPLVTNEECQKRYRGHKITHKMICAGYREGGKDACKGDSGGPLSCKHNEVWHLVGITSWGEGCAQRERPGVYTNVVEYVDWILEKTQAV
Chain of Factor XIa (P03951 19-387 partner): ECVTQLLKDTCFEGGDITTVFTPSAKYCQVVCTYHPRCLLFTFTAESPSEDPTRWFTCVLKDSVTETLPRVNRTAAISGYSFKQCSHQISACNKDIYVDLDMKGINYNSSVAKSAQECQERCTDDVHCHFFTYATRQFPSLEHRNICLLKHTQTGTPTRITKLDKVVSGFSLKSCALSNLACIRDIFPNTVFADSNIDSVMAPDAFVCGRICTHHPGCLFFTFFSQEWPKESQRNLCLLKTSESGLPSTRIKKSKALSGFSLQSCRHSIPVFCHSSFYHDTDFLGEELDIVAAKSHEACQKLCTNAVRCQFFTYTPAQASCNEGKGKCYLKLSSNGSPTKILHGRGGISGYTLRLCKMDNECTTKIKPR

Row | Compound | IC50 (Factor XIa; [1]) [nM] | IC50 (human plasma kallikrein; μM, kinetic reads) [µM] | IC50 (human plasma kallikrein; [2]) [µM] | IC50 (Factor XIa; [3]) [nM]
1 | O=C1C=C(c2c(-n3cnnn3)ccc(Cl)c2F)C[C@H]2CC[C@@H](c3nc(F)c(-c4ccnc(CO)c4F)[nH]3)N12 [Example 107, (3S,8aR)-7-[3-chloro-2-fluoro-6-(tetrazol-1-yl)phenyl]-3-[4-fluoro-5-[3-fluoro-2-(hydroxymethyl)-4-pyridyl]-1H-imidazol-2-yl]-2,3,8,8a-tetrahydro-1H-indolizin-5-one] | 0.7 |  | 0.0065 | 
2 | O=C1C=C(c2c(-n3cnnn3)ccc(Cl)c2F)CC2CC[C@@H](c3ncc(-c4ccc5[nH]c(=O)oc5c4)[nH]3)N12 (stereo partly drawn) [Example 309, 6-(2-((3S)-7-(3-Chloro-2-fluoro-6-(1H-tetrazol-1-yl)phenyl)-5-oxo-1,2,3,5,8,8a-hexahydroindolizin-3-yl)-1H-imidazol-4-yl)benzo[d]oxazol-2(3H)-one] | 1.9 |  | 0.0013 | 
3 | O=C1C=C(c2c(-n3cnnn3)ccc(Cl)c2F)C[C@H]2CC[C@H](c3ncc(-c4ccnc(COCP(=O)(O)O)c4F)[nH]3)N12 (relative stereo) [Example 37, (((4-(24(3R*,8aR)-7-(3-chloro-2-fluoro-6-(1H-tetrazol-1-yl)phenyl)-5-oxo-1,2,3,5,8,8a-hexahydroindolizin-3-yl)-1H-imidazol-5-yl)-3-fluoropyridin-2-yl)methoxy)methyl)phosphonic acid] |  |  | 0.0558 | 1.3
4 | O=C1C=C(c2c(-n3cnnn3)ccc(Cl)c2F)C[C@H]2CC[C@@H](c3ncc(-c4ccnc(OCC5(O)CC5)c4F)[nH]3)N12 [Example 183, (3S,8aR)-7-(3-chloro-2-fluoro-6-(1H-tetrazol-1-yl)phenyl)-3-(5-(3-fluoro-2-((1-hydroxycyclopropyl)methoxy)pyridin-4-yl)-1H-imidazol-2-yl)-2,3,8,8a-tetrahydroindolizin-5(1H)-one] |  |  | 0.0038 | 0.6
5 | CC(=O)Nc1cnc(C(F)(F)F)cc1-c1cnc([C@@H]2CC[C@@H]3CC(c4c(-n5cnnn5)ccc(Cl)c4F)=CC(=O)N32)[nH]1 [Example 245, N-[4-[2-[(3S,8aR)-7-[3-Chloro-2-fluoro-6-(tetrazol-1-yl)phenyl]-5-oxo-2,3,8,8a-tetrahydro-1H-indolizin-3-yl]-1H-imidazol-5-yl]-6-(trifluoromethyl)-3-pyridyl]acetamide] | 76.8 |  | 0.558 | 
6 | COC(=O)Nc1ccc(-c2cnc([C@@H]3CCC4CC(c5c(-n6cnnn6)ccc(Cl)c5F)=CC(=O)N43)[nH]2)cn1 (stereo partly drawn) [Example 325, Methyl (5-(2-((3S)-7-(3-Chloro-2-fluoro-6-(1H-tetrazol-1-yl)phenyl)-5-oxo-1,2,3,5,8,8a-hexahydroindolizin-3-yl)-1H-imidazol-5-yl)pyridin-2-yl)carbamate] | 1.2 |  | 0.007 | 
7 | COCCNC(=O)c1nccc(-c2cnc([C@@H]3CC[C@@H]4CC(c5c(-n6cnnn6)ccc(Cl)c5F)=CC(=O)N43)[nH]2)c1F [Example 180, 4-(2-((3S,8aR)-7-(3-chloro-2-fluoro-6-(1H-tetrazol-1-yl)phenyl)-5-oxo-1,2,3,5,8,8a-hexahydroindolizin-3-yl)-1H-imidazol-5-yl)-3-fluoro-N-(2-methoxyethyl)picolinamide] | 8.6 |  | 0.0332 | 
8 | O=C1C=C(c2c(-n3cnnn3)ccc(Cl)c2F)CC2CC[C@@H](c3nc(F)c(-c4ccnc(N[C@H]5CCOC5)c4F)[nH]3)N12 (relative stereo) [Example 76, (3S*)-7-(3-chloro-2-fluoro-6-(1H-tetrazol-1-yl)phenyl)-3-(4-fluoro-5-(3-fluoro-2-(((S)-tetrahydrofuran-3-yl)amino)pyridin-4-yl)-1H-imidazol-2-yl)-2,3,8,8a-tetrahydroindolizin-5(1H)-one] |  |  | 0.0019 | 0.7
9 | NC(=O)c1cc(-c2nc([C@@H]3CCC4CC(c5c(-n6cnnn6)ccc(Cl)c5F)=CC(=O)N43)[nH]c2Cl)cs1 (stereo partly drawn) [Example 218, 4-(5-Chloro-2-((3S)-7-(3-chloro-2-fluoro-6-(1H-tetrazol-1-yl)phenyl)-5-oxo-1,2,3,5,8,8a-hexahydroindolizin-3-yl)-1H-imidazol-4-yl)thiophene-2-carboxamide] | 0.3 |  | 0.0007 | 
10 | Cn1cc(NC(=O)C2CC2)c(-c2c[nH]c([C@@H]3CC[C@H]4CC(c5c(-n6cnnn6)ccc(Cl)c5F)=CC(=O)N43)n2)n1 [Example 275, N-(3-(2-((3S,8aS)-7-(3-Chloro-2-fluoro-6-(1H-tetrazol-1-yl)phenyl)-5-oxo-1,2,3,5,8,8a-hexahydroindolizin-3-yl)-1H-imidazol-4-yl)-1-methyl-1H-pyrazol-4-yl)cyclopropanecarboxamide] | 24.4 |  | 0.0156 | 
11 | CC1(O)CCc2c(-c3cnc(C4CCC5CC(c6c(-n7cnnn7)ccc(Cl)c6F)=CC(=O)N54)[nH]3)ccnc21 (stereo not shown) [Example 95, 7-(3-Chloro-2-fluoro-6-(1H-tetrazol-1-yl)phenyl)-3-(5-(7-hydroxy-7-methyl-6,7-dihydro-5H-cyclopenta[b]pyridin-4-yl)-1H-imidazol-2-yl)-2,3,8,8a-tetrahydroindolizin-5(1H)-one] | 3.5 |  | 0.0239 | 
12 | [2H]C1([2H])C[C@@H](c2ncc(-c3ccnc(CO)c3F)[nH]2)N2C(=O)C=C(c3c(-n4cnnn4)ccc(Cl)c3F)C([2H])([2H])[C@]21[2H] [Example 33, (3S,8aR)-7-(3-Chloro-2-fluoro-6-(1H-tetrazol-1-yl)phenyl)-3-(5-(3-fluoro-2-(hydroxymethyl)pyridin-4-yl)-1H-imidazol-2-yl)-2,3,8,8a-tetrahydroindolizin-5(1H)-one-1,1,8,8,8a-d5] |  |  | 0.0332 | 3.9
13 | Cc1ccc(-n2cnnn2)c(C2=CC(=O)N3[C@H](CC[C@H]3c3ncc(-c4ccnc(CO)c4F)[nH]3)C2)c1F [Example 57, (3S,8aR)-3-(5-(3-fluoro-2-(hydroxymethyl)pyridin-4-yl)-1H-imidazol-2-yl)-7-(2-fluoro-3-methyl-6-(1H-tetrazol-1-yl)phenyl)-2,3,8,8a-tetrahydroindolizin-5(1H)-one] | 20.2 |  | 0.106 | 

Next, values leading:

Row | IC50 (Factor XIa; [1]) [nM] | IC50 (human plasma kallikrein; μM, kinetic reads) [µM] | IC50 (human plasma kallikrein; [2]) [µM] | IC50 (Factor XIa; [3]) [nM] | Compound
14 | 64.1 | 2.3 |  |  | Nc1ccc(-c2cnc([C@H]3CC[C@H]4CC(c5c(-n6cnnn6)ccc(Cl)c5F)=CC(=O)N43)[nH]2)c(F)n1 [Example 357, (3R,8aS)-3-(5-(6-Amino-2-fluoropyridin-3-yl)-1H-imidazol-2-yl)-7-(3-chloro-2-fluoro-6-(1H-tetrazol-1-yl)phenyl)-2,3,8,8a-tetrahydroindolizin-5(1H)-one]
15 | 95.6 |  | 0.137 |  | O=C1C=C(c2c(-n3cnnn3)ccc(Cl)c2F)C[C@H]2CC[C@@H](c3nc(-c4ncc(CO)s4)c[nH]3)N12 [Example 39, (3S,8aR)-7-(3-Chloro-2-fluoro-6-(1H-tetrazol-1-yl)phenyl)-3-(4-(5-(hydroxymethyl)thiazol-2-yl)-1H-imidazol-2-yl)-2,3,8,8a-tetrahydroindolizin-5(1H)-one]
16 | 0.5 |  | 0.0096 |  | [2H]c1cc(-c2c[nH]c([C@@H]3CC[C@@H]4CC(c5c(F)c(Cl)cc([2H])c5-n5cnnn5)=CC(=O)N43)n2)c(F)nc1N [Example 125, (3S,8aR)-3-(4-(6-amino-2-fluoropyridin-3-yl-5-d)-1H-imidazol-2-yl)-7-(3-chloro-2-fluoro-6-(1H-tetrazol-1-yl)phenyl-5-d)-2,3,8,8a-tetrahydroindolizin-5(1H)-one]
17 | 0.2 |  | 0.0005 |  | O=C(Nc1ccccc1-c1c[nH]c([C@@H]2CC[C@@H]3CC(c4c(-n5cnnn5)ccc(Cl)c4F)=CC(=O)N32)n1)C1CC1 [Example 369, N-(2-(2-((3S,8aR)-7-(3-chloro-2-fluoro-6-(1H-tetrazol-1-yl)phenyl)-5-oxo-1,2,3,5,8,8a-hexahydroindolizin-3-yl)-1H-imidazol-4-yl)phenyl)cyclopropanecarboxamide]
18 |  |  | 0.0068 | 0.4 | [2H]c1nc([C@@H]2CC[C@]3([2H])CC(c4c(-n5cnnn5)ccc(Cl)c4F)=CC(=O)N23)[nH]c1-c1c(F)nc(N)c([2H])c1[2H] (single isomer, unassigned) [Example 132, (3S *,8aR*)-3-(5-(6-amino-2-fluoropyridin-3-yl-4,5-d2)-1H-imidazol-2-yl-4-d)-7-(3-chloro-2-fluoro-6-(1H-tetrazol-1-yl)phenyl)-2,3,8,8a-tetrahydroindolizin-5(1H)-one-8a-d]
19 | 32.2 |  | 0.226 |  | CCOC(=O)Nc1ccncc1-c1c[nH]c([C@@H]2CCC3CC(c4c(-n5cnnn5)ccc(Cl)c4F)=CC(=O)N32)n1 (stereo partly drawn) [Example 251, Ethyl N-[3-[2-[(3S)-7-[3-chloro-2-fluoro-6-(tetrazol-1-yl)phenyl]-5-oxo-2,3,8,8a-tetrahydro-1H-indolizin-3-yl]-1H-imidazol-4-yl]-4-pyridyl]carbamate]
20 | 1.4 |  | 0.0017 |  | NC(=O)c1scc(-c2c[nH]c([C@@H]3CC[C@@H]4CC(c5c(-n6cnnn6)ccc(Cl)c5F)=CC(=O)N43)n2)c1F [Example 214, 4-(2-((3S,8aR)-7-(3-Chloro-2-fluoro-6-(1H-tetrazol-1-yl)phenyl)-5-oxo-1,2,3,5,8,8a-hexahydroindolizin-3-yl)-1H-imidazol-4-yl)-3-fluorothiophene-2-carboxamide]

Reference: patent publication US20230295157A1, “3-(1H-IMIDAZOL-2-YL)-2,3,8,8A-TETRAHYDROINDOLIZIN-5(1H)-ONE DERIVATIVES USEFUL AS FACTOR XIA INHIBITORS” (JANSSEN PHARMACEUTICA NV, priority 2020, published 2023)
